Among the test systems are HCT-116; HCT-15; HOP-92; K562; M14; MOLT-4; Malme-3M; NCI-H460; OVCAR-5; RPMI-8226; RXF 393; SK-MEL-2; SK-OV-3; SN12C; SNB-19; U-251; HOP-62; OVCAR-3; SNB-75; LOX IMVI.
Holding throughout (test): growth of human tumour cells (NCI), 48 h

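Interpolation was linear, between the two tested concentrations surrounding the appropriate level; five concentrations were tested over 48 hours in 96-well plates. Here, GI50 denotes the concentration required for 50% inhibition of growth.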 The source made the active and inactive calls. Rule as the data show it: active = GI50 up to about 1.1 µM and inactive = higher.

Take `O=c1oc2ccccc2c2nc3ccccc3cc12`: the GI50 was 40.2 µM (inactive) in the assay with HCT-116; over 100 µM in the assay with HCT-15; 31.3 µM (inactive) in the assay on HOP-92; > 100 µM (inactive) in the assay with K562; > 100 µM (inactive) in the assay on M14; > 100 µM (inactive) with MOLT-4. The GI50 in the assay with Malme-3M is > 100 µM (inactive); with NCI-H460, 37.8 µM (inactive); in the assay with OVCAR-5, > 100 µM (inactive); in the assay with RPMI-8226, > 100 µM (inactive); in the assay on RXF 393, 29.2 µM (inactive); in the assay on SK-MEL-2 it was > 100 µM (inactive). In addition, the GI50 in the assay with SK-OV-3 was 51.9 µM (inactive); in the assay on SN12C, 99.1 µM (inactive); in the assay with SNB-19, 23.3 µM (inactive); with U-251, 30.1 µM (inactive).

As to `COC(=O)C1C2C=CC(C2)N1S(=O)(=O)c1ccccc1` (configuration not stated), the GI50 is > 100 µM (inactive) with HCT-116; over 100 µM in the assay on HCT-15; > 100 µM (inactive) in the assay with HOP-62; 33 µM (inactive) in the assay on HOP-92; > 100 µM (inactive) in the assay on K562; > 100 µM (inactive) in the assay on M14. Besides, the GI50 in the assay on MOLT-4, with Malme-3M, in the assay on NCI-H460, with OVCAR-3, in the assay on OVCAR-5 and with RPMI-8226 was > 100 µM (inactive) throughout. Also, the GI50 with RXF 393, in the assay on SK-MEL-2, in the assay on SK-OV-3, with SN12C, with SNB-19 and in the assay on U-251 was > 100 µM (inactive) in each case.

`C1=N\CCNCC/N=C\c2ccc(cc2)OCc2cccc(n2)COc2ccc/1cc2`: the GI50 with HCT-116 was > 100 µM (inactive); in the assay on HCT-15 it was 97.1 µM; in the assay on HOP-62 it was 21.4 µM (inactive); in the assay with HOP-92, > 100 µM (inactive); with K562 it was > 100 µM (inactive); in the assay on M14, 77.6 µM (inactive). The GI50 was > 100 µM (inactive) in the assay with MOLT-4; 90.8 µM (inactive) in the assay on Malme-3M; > 100 µM (inactive) with NCI-H460; > 100 µM (inactive) in the assay on OVCAR-3; > 100 µM (inactive) in the assay on OVCAR-5; > 100 µM (inactive) with RPMI-8226. Further, the GI50 is 98.9 µM (inactive) with RXF 393; 70.3 µM (inactive) in the assay with SK-MEL-2; 36.3 µM (inactive) in the assay on SK-OV-3; > 100 µM (inactive) in the assay on SN12C; 49 µM (inactive) in the assay with SNB-19; 23 µM (inactive) with SNB-75. Also, the GI50 in the assay on U-251 was 32 µM (inactive).

In the case of `COc1ccc(/C=C2/S/C(=N\c3ccccc3)N(NC(=O)Cc3ccccc3)C2=O)c(OC)c1`, the GI50 in the assay on HCT-116 was > 100 µM (inactive); with HCT-15, over 100 µM; in the assay with HOP-62, > 100 µM (inactive); in the assay on HOP-92, 3.37 µM (inactive); in the assay on K562, 89.9 µM (inactive); in the assay with M14 it was > 100 µM (inactive). Further, the GI50 in the assay on MOLT-4 was 68.7 µM (inactive); in the assay with NCI-H460 it was > 100 µM (inactive); with OVCAR-3, > 100 µM (inactive); in the assay with OVCAR-5 it was > 100 µM (inactive); in the assay with RPMI-8226, > 100 µM (inactive); in the assay on RXF 393, > 100 µM (inactive). For the same compound, the GI50 in the assay with SK-MEL-2, in the assay on SK-OV-3, in the assay with SN12C, in the assay with SNB-19, in the assay with SNB-75 and in the assay with U-251 was > 100 µM (inactive) throughout.

Regarding `O=S(=O)(c1ccccc1)[C@H]1[C@@H]2O[C@@H]2C[C@@H]1O`, the GI50 in the assay with HCT-116 was > 100 µM (inactive); in the assay on HCT-15, over 100 µM; in the assay with HOP-62, > 100 µM (inactive); in the assay on HOP-92, > 100 µM (inactive); in the assay with K562, > 100 µM (inactive); in the assay with M14, > 100 µM (inactive). Also, the GI50 in the assay on MOLT-4, in the assay on Malme-3M, in the assay with NCI-H460, with OVCAR-3, in the assay with OVCAR-5 and with RPMI-8226 was > 100 µM (inactive) each time. Also, the GI50 is > 100 µM (inactive) in the assay with RXF 393; > 100 µM (inactive) with SK-MEL-2; > 100 µM (inactive) in the assay on SK-OV-3; > 100 µM (inactive) in the assay on SN12C; > 100 µM (inactive) with SNB-19; 47.4 µM (inactive) in the assay with SNB-75. Further, the GI50 in the assay on U-251 is > 100 µM (inactive).

Take `CC(C)CC(Nc1c(O)ccc2ccccc12)C(=O)O` (configuration not stated): the GI50 in the assay with HCT-116 was 27.9 µM (inactive); in the assay on HCT-15 it was 36.9 µM; with HOP-62 it was 83.9 µM (inactive); with K562, 58.7 µM (inactive); with LOX IMVI, 31.7 µM (inactive); in the assay on M14, 37.8 µM (inactive). For the same compound, the GI50 was 33 µM (inactive) in the assay with MOLT-4; 15.2 µM (inactive) in the assay with Malme-3M; 35.2 µM (inactive) in the assay with NCI-H460; 20.7 µM (inactive) in the assay on OVCAR-3; 80.7 µM (inactive) with OVCAR-5; 28.2 µM (inactive) with RPMI-8226. For the same compound, the GI50 in the assay on RXF 393 is 12.9 µM (inactive); with SK-MEL-2, 17.1 µM (inactive); with SK-OV-3, 27.2 µM (inactive); with SN12C it was 29.3 µM (inactive); in the assay with SNB-19, 37.6 µM (inactive); in the assay with SNB-75, 32.3 µM (inactive). The GI50 in the assay on U-251 was 29.8 µM (inactive).

As to `CCCN/C(N)=N/C#N`, the GI50 in the assay on HCT-116 is 67 µM (inactive); with HCT-15, 19.4 µM; with HOP-62, > 100 µM (inactive); in the assay with HOP-92, > 100 µM (inactive); with K562, 60.3 µM (inactive); in the assay with M14, > 100 µM (inactive). In addition, the GI50 in the assay on MOLT-4, with Malme-3M, in the assay with NCI-H460, with OVCAR-3, in the assay with OVCAR-5 and in the assay with RPMI-8226 was > 100 µM (inactive) in each case. For the same compound, the GI50 in the assay with RXF 393, with SK-MEL-2, in the assay on SK-OV-3, with SN12C, in the assay with SNB-19 and in the assay with SNB-75 was > 100 µM (inactive) in each case. The GI50 in the assay on U-251 is 46.7 µM (inactive).

As for `COC(=O)C(=O)C1(CCC(C)=O)c2ccccc2-c2c(C)ccc(C)c21` (configuration not stated), the GI50 is 35.7 µM (inactive) with HCT-116; 32.6 µM in the assay on HCT-15; 53 µM (inactive) in the assay on HOP-62; 30.1 µM (inactive) in the assay with K562; 36.8 µM (inactive) with LOX IMVI; 46.8 µM (inactive) in the assay with M14. For the same compound, the GI50 in the assay with MOLT-4 was 23.1 µM (inactive); in the assay with Malme-3M, 40.4 µM (inactive); in the assay with NCI-H460 it was 33 µM (inactive); in the assay on OVCAR-3, 32 µM (inactive); in the assay with OVCAR-5, > 100 µM (inactive); with RPMI-8226 it was 26.2 µM (inactive). The GI50 is 32.1 µM (inactive) in the assay on RXF 393; 40.6 µM (inactive) in the assay on SK-MEL-2; 84.1 µM (inactive) in the assay with SK-OV-3; 69.2 µM (inactive) in the assay with SN12C; > 100 µM (inactive) with SNB-19; 53 µM (inactive) in the assay with SNB-75. In addition, in the assay on U-251, the GI50 is 41.8 µM (inactive).

These data come from ChEMBL document CHEMBL1201862, “PubChem BioAssay data set” (2004).
